Data set [1] is described as follows: Fluorimetric pH titration of the sensor molecules in aqueous buffers. Conditions: for λem / λex / pK / pKa: aqueous buffers; for λem / λex / pK: around 10 μmol/L; for S = F/F0: fluorescent response to the pH changes; for pK: fluorimetric pH titration. The data set is classed as physicochemical. Here is the method: Example 201. Fluorimetric pH titration. The study of the fluorescent response of the sensor molecules to changes in pH was performed in solution in aqueous buffers (in concentrations around 10 μmol/L).
The resulting curve has a pronounced maximum at pH 7.2 (FIG. 2).

Data set [2] can be described thus: Fluorescent pH response of transferrin conjugates labeled with pH sensing dyes. The data set is classed as physicochemical. The conditions noted are these: transferrin conjugate of the labeling sensor. Here is the method:
Labeling of transferrin with pH sensing dyes. All materials are from Invitrogen unless otherwise stated. Dissolve transferrin from human serum (Sigma, T4132) in 0.1 M NaHCO3, pH 8.3, to a concentration of 10 mg/mL. Make a 10 mg/mL solution of the succinimidyl ester of the dye in dry DMSO and sonicate briefly to aid in dissolution of the dye. Add a 10 to 30-fold molar excess of the reactive dye solution to the transferrin solution dropwise while stirring. Note that the volume of dye added depends on the specific dye and the amount of transferrin to be labeled. Protect the reaction vessel from light and stir for ˜1 hour at RT. Purify the conjugate on a P-30M gel filtration column (BioRad, 150-4150) in PBS, pH 7.2. Centrifuge the conjugate at 19,000 rpm for 20 minutes to remove aggregates, if present. Determine the degree of labeling by measuring A560 nm/A280 nm.

In the next data set the test system is HeLa cells. Put plainly: Staining of endocytic recycling compartment using transferrin conjugated with pH sensing dye. The data set is classed as cell-based. Conditions: transferrin conjugate 20 ug/mL, 45 minutes, 37 C, FIG. 3. The procedure:
Staining of endocytic recycling compartment using transferrin conjugated with pH sensing dye (compound 129). HeLa (ATCC) cells were plated in a 96 well microplate at 10,000 cells per well in McCoy 5A media with 5% FBS and 4 uM deferoxamine (Sigma). Cells were grown overnight and then rinsed 2 times in DMEM with-out phenol red plus 0.5% FBS. Transferrin conjugates were applied in same media at 20 ug/mL for 45 minutes at 37 C. Cells were then rinsed 1 time with DMEM and imaged on a Zeiss 200M inverted fluorescence microscope using a 40× objective, TRITC filters, a CoolSnap HQ (Photometrics) ccd camera, and Metamorph (Universal Imaging Corp.) acquisition software.

Data set [3] has as its system white blood cells (granualcytes). Kind of data set: Assay of phagocytic activity in whole blood using bioparticles labeled with pH sensing dyes. The class given is cell-based. The procedure: Assay of phagocytic activity using bioparticles labeled with pH sensing dyes. A whole blood sample was collected in a sodium heparin tube. Aliquots of whole blood (100 uL) were combined with labeled E. coli (20 uL of 10 mg/mL) in 12×75 mm flow cytometry Falcon tube, and the samples were incubated in a 37° C. water bath for 15 minutes. A negative control was put on ice. After incubation, the tubes were placed in a rack and the red blood cells were lysed with 1 mL of an ammonium chloride lysis solution (0.187 M NH4Cl, 10 mM KHCO3, 0.095 mM EDTA) for 10 minutes at room temperature. The samples were centrifuged at 1200 rcf for 5 minutes, the supernatants were removed, and the cell pellets were resuspended in HBSS buffer. The resuspended cells were put into a 96 well microplate, 100 uL per well, and the plate was spun to settle the cells to the bottom of the wells. Imaging was done on a Zeiss 200M inverted fluorescence microscope using a 40× objective, TRITC filters, a CoolSnap HQ (Photometrics) ccd camera, and Metamorph (Universal Imaging Corp.) acquisition software. […] This would give an overestimation of phagocytic activity in a plate reader experiment, unless other steps were taken such as including a quencher dye.

A further data set relates to neurons. Put plainly: Detection of neuronal cells in mixed neuron/astroglial culture. The data set is classed as cell-based, rat. The procedure:
Astroglial feeder layers were established for one week in culture on glass bottomed culture dishes, 35 mm diameter, coated with Poly-L-Lysine. Neurons from embryonic day 18 rat hippocampi were dissociated in culture medium, and seeded onto the feeder layers at a density of 25-35,000 cells per milliliter, two milliliters per dish, and allowed to grow in neuronal culture medium plus mitotic inhibitors to prevent glial proliferation.
Cells were pre-stained for 15 minutes with 200 ng/mL Hoercsht to visualize DNA in the nuclei, and 50 ng/mL calcien AM ester to visualize cytoplasm by adding 1000×DMSO stocks of these compounds to the cells in complete medium, then returning them to the cell culture incubator for fifteen minutes at 37 degrees Celsius. Cells were removed, and the medium gently poured off. The cells were immediately placed in 5 uM Compound 129, diluted from a 1 mM DMSO stock into normal saline plus 20 mM HEPES and 20 mM glucose, final pH set to 7.4 with NaOH. The cells were incubated in labeling solution for ten minutes at room temperature, and then gently washed twice with saline (above) minus dye for imaging.

Data set [4] is described as follows: Fluorescence response of ratiometric dextran conjugates versus pH. The data set is classed as physicochemical. Conditions: 50 mM phosphate buffers.
The nature of data set [5]: pH titration of labeled E. coli bioparticles. The class given is physicochemical. The conditions noted are these: dye labeled E. coli bioparticles 0.2 mg/mL, 50 mM potassium phosphate buffer, pH 1 to 10, FIG. 4. Here is the method:
Example 303: Labeling E. Coli bioparticles for use in assays of phagocytosis. Escherichia coli Strain K12, lyophilized cells (Sigma, EC1-5G) were resuspended in PBS at 20 mg/mL and vortexed vigorously and sonicated for several minutes. The suspensions were divided into 100 uL aliquots spun down at 10,000×g for 2 minutes, supernatants removed and resuspended in 100 uL of PBS. This was done twice to clean up the E. coli. The amine reactive SE versions of the novel pH dyes were made up in DMSO at concentration of 10 mM. For labeling, 100 uL of the E. coli suspension was combined with 100 uL of the dye stock solution, so 2 mg of E. coli was labeled with 1 umole of dye. The labeling was carried out at 37 C for 45 minutes followed by the same spin down and resuspension procedure as described above 5 times to remove free dye. The final resuspension was 10 mg/mL. pH Titration of labeled E. Coli. The fluorescence of the labeled E. coli was measured at a range of pH values in 50 mM potassium phosphate buffer, from pH 1 to 10, using a Flexstation II (Molecular Devices) plate reader. The conjugates were diluted 1:50 into the potassium phosphate buffers, so the final concentration of the labeled bioparticles was 0.2 mg/mL.

Data set [6] in a line: Quantum yield determination relative to pH-insensitive standard 180. The data set is classed as physicochemical. Here is the method: Example 202. Quantum yield determination. Quantum yields at pH=2.0 and pH=10.0 were determined for the compounds 178 and 179 relative to the pH-insensitive standard 180 by comparing integrated absorption and emission spectral curves.
Compounds 178 and 179 were prepared by treatment of the corresponding succinimidyl esters 111 and 129 with methoxyethylamine. The reference standard 180 was obtained in the reaction of commercial succinimidyl 5-carboxy-tetramethylpdodamine (TAMRA-5-SE) with the same amine.

In the case of `CCOC(=O)CCCN(CC)c1cc(OC)c(C2=c3cc4c5c(c3Oc3c2cc2c6c3CCCN6CCC2)CCC[N+]=5CCC4)cc1OC` [Compound 155], in data set [1], the λem came to 611 nm, the λex was 586 nm, the “S = F/F0” value is 53 and the pK is listed as 5.0.
In the same order, the values of `CCOC(=O)CCCN(CC)c1cc(OC)c(-c2cc3ccc(C(=O)OC)cc3[nH]2)cc1OC` [Compound 157] are 424 nm, 349 nm, 270 and 5.4.
With `CN(C)C=Nc1ccc(-c2c3ccc(=O)cc-3oc3cc(O)ccc23)c(C(=O)O)c1` [Compound 173], in data set [1] (FIG. 2), the “pH of the maximum of the titration curve” value is 7.2. For the same molecule, the pKa in data set [1] (FIG. 2, read-out: pKa, drop in fluorescence (amidine titration curve)) is around 8. For the same molecule, in data set [1], the λem stood at 517 nm, the λex came out at 490 nm, the “S = F/F0” value worked out at 200 and the pK is given as 7.2. This molecule also registered a pKa in data set [1] (pKa, increase in fluorescence (fluorescein titration curve), FIG. 2) of around 5.5.
In the case of `CCN(CCCC(=O)OC)c1cc(OC)c(-c2c3ccc(N(C)C)cc3[o+]c3cc(N(C)C)ccc23)cc1N(C)C` [Compound 127, Methyl 4-((2-dimethylamino)-5-methoxyphenyl-4-tetramethylrhodaminyl)(ethyl)amino) butanoate], the “fluorescence upon protonation (titration curve)” value in data set [1] (FIG. 1) is on record as “significant increase in fluorescence upon protonation”. For the same molecule, in data set [1], the λem is 587 nm, the λex was 561 nm, the “S = F/F0” value is 130 and the pK is listed as 7.3.
“Ethyl 4-((2-dimethylamino)-5-methoxyphenyl-4-tetramethylrhodaminyl)(ethyl)amino) butanoate [Compound 133]”: in data set [1], the λem was determined as 587 nm, the λex is 561 nm, the “S = F/F0” value is 180 and the pK turned out to be 7.3.
Take `CCN(CCCC(=O)NCCCCCC(=O)ON1C(=O)CCC1=O)c1cc(OC)c(-c2c3ccc(=[N+](C)C)cc-3oc3cc(N(C)C)ccc23)cc1N(C)C` [Compound 139]: the “S = F/F0” value in data set [2] stood at 15. In addition, in data set [1], the λem is 588 nm, the λex is on record as 556 nm, the “S = F/F0” value is on record as 80 and the pK was found to be 5.6.
In data set [1], `CCN(CC)c1cc2occ(-c3ncc(C(=O)O)o3)c2cc1OC` [Compound 152] gave a λem of 393 nm and a λex of 325 nm.
On to `CCN(CCCC(=O)ON1C(=O)CCC1=O)c1cc(OC)c(-c2c3ccc(N(C)C)cc3[o+]c3cc(N(C)C)ccc23)cc1N(C)C` [Compound 129, Succinimidyl 4-((2-Dimethylamino)-5-methoxyphenyl-4-tetramethylrhodaminyl)(ethyl)amino) butanoate], for which the staining pattern entry with HeLa cells is recorded as “characteristic perinuclear staining pattern of the endocytic recycling compartment”. The pKa in data set [2] was determined as 4.2. In data set [3] (E. coli labeled with the dye, relative to unlabeled E. coli and iced negative control, FIG. 5), the “fluorescence of cells by flow cytometry” value is listed as “increase in fluorescence”. The “staining seen by fluorescence microscopy” value in data set [3] (labeled E. coli, whole blood, 37° C., 15 minutes, FIG. 6) is on record as “bright vesicular staining of the phagosomes filled with the engulfed E. coli within the cells”. For the same molecule, the “uptake by glial cells shown by acidification of the preparation” value with neurons is “had in fact taken up”. For the same molecule, the “labeling of neurons relative to astrocytes” value in the data set on neurons (5 uM, ten minutes, room temperature, pH 7.4, TRITC channel) is reported as “appear bright over the dimly labeled astrocytes”. Further, the “fluorescence in the red channel versus pH” value in data set [4] (10,000 MW dextran conjugate with rhodamine green, 0.1 mg/mL, ex 540, em 600, FIG. 10A) is “fluorescence does change with pH”; in data set [4] (dextran conjugate with rhodamine green at a higher degree of label than Compound 129, 0.1 mg/mL, ex 540, em 600, FIG. 9A) it was “fluorescence does change with pH”. Moreover, the “fluorescence intensity versus pH” value in data set [5] is listed as “large increase in fluorescence at acidic pHs”.
As to `CCOC(=O)CCCN(CC)c1cc(OC)c(C2=c3cc4c5c(c3Oc3c2cc2c6c3CCCN6CCC2)CCC[N+]=5CCC4)cc1N(C)C` [Compound 162], in data set [1], the λem was found to be 611 nm, the λex came to 587 nm, the “S = F/F0” value is given as 88 and the pK is reported as 7.2.
On to `CCN(CCCC(=O)ON1C(=O)CCC1=O)c1cc(O)c(-c2c3ccc(=[N+](C)C)cc-3oc3cc(N(C)C)ccc23)cc1OC.[Cl-]` [Compound 189, N-(6-(dimethylamino)-9-(4-((4-(2,5-dioxopyrrolidin-1-yloxy)-4-oxobutyl)(ethyl)amino)-2-hydroxy-5-methoxyphenyl)-3H-xanthen-3-ylidene)-N-methylmethanaminium chloride], for which the “fluorescence intensity versus pH” value in data set [5] is “large increase in fluorescence at acidic pHs”.
Take `CCN(CCCC(=O)NCCCCCN)c1cc(OC)c(-c2c3ccc(=[N+](C)C)cc-3oc3cc(N(C)C)ccc23)cc1N(C)C` [Compound 141]: in data set [1], the λem was 588 nm, the λex was found to be 560 nm, the “S = F/F0” value was 65 and the pK worked out at 7.4.
`CCN(CCCC(=O)NCCOC)c1cc(OC)c(-c2c3ccc(=[N+](C)C)cc-3oc3cc(N(C)C)ccc23)cc1OC` [Compound 178] had a pKa in data set [6] (aqueous buffers, Table 4) of 4.6. The “QE (pH = 2.0)” value in data set [6] (relative quantum yield, pH = 2.0, relative to standard 180) is on record as 0.78. Moreover, the “QE (pH = 10.0)” value in data set [6] (relative quantum yield, pH = 10.0, relative to standard 180) is 0.008.
Consider `CN(C)C=Nc1ccc(-c2c3ccc(=[N+](C)C)cc-3oc3cc(N(C)C)ccc23)c(C(=O)O)c1` [Compound 175], for which, in data set [1], the λem is 576 nm, the λex was 550 nm, the “S = F/F0” value is listed as 10 and the pK turned out to be 7.7.

The values are drawn from patent publication US11867698B2, “Fluorogenic pH sensitive dyes and their method of use” (Life Technologies Corporation, priority 2006, dated 2024).
